Target: T1, TEAD3 (Homo sapiens, UniProt Q99594)
T1 construct: with YAP peptide (amino acids 50–100)
Experiment: TEAD3–YAP TR-FRET with purified protein (IC50); lipid displacement TR-FRET
Type: binding

T1 sequence (Q99594 216-435): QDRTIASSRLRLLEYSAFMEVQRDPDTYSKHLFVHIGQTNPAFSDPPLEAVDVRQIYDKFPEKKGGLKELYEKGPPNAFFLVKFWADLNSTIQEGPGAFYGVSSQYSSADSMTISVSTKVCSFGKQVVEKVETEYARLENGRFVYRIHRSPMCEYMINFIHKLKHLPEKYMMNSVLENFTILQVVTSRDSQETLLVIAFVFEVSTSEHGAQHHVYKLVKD
T1 sequence (P46937 50-100 partner): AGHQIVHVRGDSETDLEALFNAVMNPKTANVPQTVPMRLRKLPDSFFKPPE

- IC50: 1400 nM
Structure (SMILES): CCOC(=O)c1cnn2c(=O)cc(-c3ccc(C(F)(F)F)cc3)[nH]c12 [compound 1]

Reference: paper PMC10293011, “An allosteric pan-TEAD inhibitor blocks oncogenic YAP/TAZ signaling and overcomes KRAS G12C inhibitor resistance” (Nature Cancer, 2023)
